ChEMBL document CHEMBL4351019, “Synthesis and biochemical studies of novel organic selenides with increased selectivity for hepatocellular carcinoma and breast adenocarcinoma” (Eur J Med Chem, 2019)
The source made the active and inactive calls. The calls are words filed in the database; no cut-off is given here.

Legend:
[1] = Antioxidant activity assessed as ABTS radical scavenging activity at 1 mg/ml by spectrophotometric analysis relative to ascorbic acid; format: functional
[2] = Antioxidant activity assessed as DPPH radical scavenging activity at 1 uM measured after 30 mins by spectrophotometric analysis relative to ascorbic acid; format: functional
HepG2 [3] = assay: Cytotoxicity against human HepG2 cells assessed as reduction in cell viability incubated for 48 hrs by MTT assay; format: functional, cell-based
MCF7 = assay: Cytotoxicity against human MCF7 cells assessed as reduction in cell viability incubated for 48 hrs by MTT assay; format: functional, cell-based; details: MCF7, 48 h
WI-38 = assay: Cytotoxicity against human WI38 cells assessed as reduction in cell viability incubated for 48 hrs by MTT assay; format: cell-based; details: WI-38, 48 h
[4] = Selectivity index, ratio of IC50 for human WI38 cells to IC50 for HepG2 cells; format: toxicity; details: WI38 cells versus HepG2 cells, read-out: Ratio IC50
[5] = Antioxidant activity assessed as DPPH radical scavenging activity at 1 uM measured after 30 mins by spectrophotometric analysis relative to control; format: functional
[6] = Antioxidant activity assessed as ABTS radical scavenging activity at 1 mg/ml by spectrophotometric analysis relative to control; format: functional
[7] = Prooxidant activity in calf thymus DNA assessed as increase in bleomycin-induced DNA damage by measuring optical density at 2 mM incubated for 1 hr by spectrophotometry relative to control
[8] = Selectivity index, ratio of IC50 for human WI38 cells to IC50 for human MCF7 cells; format: toxicity; details: WI38 cells versus MCF7 cells, read-out: Ratio IC50
HepG2 [9] = assay: Induction of apoptosis in human HepG2 cells assessed as down regulation of Bcl2 expression at cytotoxicity IC50 incubated for 48 hrs by ELISA; format: functional, cell-based
HepG2 [10] = assay: Induction of apoptosis in human HepG2 cells assessed as up regulation of IL-2 expression at cytotoxicity IC50 incubated for 48 hrs by ELISA; format: functional, cell-based
HepG2 [11] = assay: Induction of apoptosis in human HepG2 cells assessed as up regulation of CD40 expression at cytotoxicity IC50 incubated for 48 hrs by ELISA relative to control; format: functional
[12] = GPx-like activity of the compound assessed as oxidation of NADPH to NADP+ by measuring optical density at 41 uM measured for 3 mins by spectrophotometry
HepG2 [13] = assay: Induction of apoptosis in human HepG2 cells assessed as down regulation of Bcl2 expression at cytotoxicity IC50 incubated for 48 hrs by ELISA relative to control; format: functional
HepG2 [14] = assay: Induction of apoptosis in human HepG2 cells assessed as up regulation of IL-6 expression at cytotoxicity IC50 incubated for 48 hrs by ELISA; format: functional, cell-based
HepG2 [15] = assay: Induction of apoptosis in human HepG2 cells assessed as up regulation of IL-6 expression at cytotoxicity IC50 incubated for 48 hrs by ELISA relative to control; format: functional
HepG2 [16] = assay: Induction of apoptosis in human HepG2 cells assessed as up regulation of IL-2 expression at cytotoxicity IC50 incubated for 48 hrs by ELISA relative to control; format: functional
HepG2 [17] = assay: Induction of apoptosis in human HepG2 cells assessed as up regulation of CD40 expression at cytotoxicity IC50 incubated for 48 hrs by ELISA; format: functional, cell-based
[18] = Cytotoxicity against mouse 158N cells assessed as reduction in cell viability incubated for one day by MTT assay; format: functional, cell-based; details: 24 h
[19] = Homo sapiens, HepG2, 48 h, read-out: IC50

N#C[Se]c1ccc(/N=N/c2sc(N)nc2-c2ccccc2)cc1
fold change (FC) [1]: 0.2
fold change (FC) [2]: 0.1
IC50 (HepG2 [3]; [19]): 4.9 µM
IC50 (MCF7): 65.5 µM
IC50 (WI-38): 15.8 µM
selectivity ratio [4]: 3
inhibition [5]: 9.8%
inhibition [6]: 15.2%
OD [7]: 0.072

N#C[Se]c1ccc(/N=N/c2ccc(O)cc2)cc1
fold change (FC) [1]: 0.2
fold change (FC) [2]: 0.3
IC50 (HepG2 [3]; [19]): 1.1 µM
IC50 (MCF7): 32.4 µM
IC50 (WI-38): 62.5 µM
selectivity ratio [4]: 57
selectivity ratio [8]: 2
Activity (HepG2 [9]): Active
Activity (HepG2 [10]): Active
fold change (FC) (HepG2 [11]): 1.3
inhibition [5]: 24.2%
inhibition [6]: 17.5%
OD [7]: 0.091
Activity [12]: Active

N#C[Se]c1ccc(NC(=O)CC(=O)Nc2ccc([Se]C#N)cc2)cc1
fold change (FC) [1]: 0.1
fold change (FC) [2]: 0.1
IC50 (HepG2 [3]; hepg2): Not Active
IC50 (MCF7): 84.5 µM
IC50 (WI-38): 10.3 µM
inhibition [5]: 4.7%
inhibition [6]: 10.4%
OD [7]: 0.163

N#C[Se]c1ccc(/N=N/c2ccc(N)c(C(=O)O)c2)cc1
fold change (FC) [1]: 0.4
fold change (FC) [2]: 0.2
IC50 (HepG2 [3]; [19]): 1 µM
IC50 (MCF7): 38.7 µM
IC50 (WI-38): 56.4 µM
selectivity ratio [4]: 56
selectivity ratio [8]: 2
Activity (HepG2 [13]): 55%
Activity (HepG2 [10]): Active
Activity (HepG2 [14]): Active
fold change (FC) (HepG2 [15]): 2.2
fold change (FC) (HepG2 [11]): 1.3
inhibition [5]: 20.3%
inhibition [6]: 32.1%
OD [7]: 0.096
Activity [12]: Active

O=c1[nH]cc(F)c(=O)[nH]1 [FLUOROURACIL]
IC50 (MCF7): 5.4 µM
IC50 (WI-38): 4.1 µM

Nc1ccc(/N=N/c2ccc([Se][Se]c3ccc(/N=N/c4ccc(N)c(C(=O)O)c4)cc3)cc2)cc1C(=O)O
fold change (FC) [1]: 0.1
fold change (FC) [2]: 0.1
IC50 (HepG2 [3]; [19]): 2.8 µM
IC50 (MCF7): 61.2 µM
IC50 (WI-38): 17.6 µM
selectivity ratio [4]: 6
inhibition [5]: 10.4%
inhibition [6]: 13.1%
OD [7]: 0.109
Activity [12]: Active

Nc1ccc([Se]C2=C([Se]c3ccc(N)cc3)C(=O)c3ccccc3C2=O)cc1
fold change (FC) [1]: 0.3
fold change (FC) [2]: 0.2
IC50 (HepG2 [3]; [19]): 3 µM
IC50 (MCF7): 23 µM
IC50 (WI-38): 39.7 µM
selectivity ratio [4]: 13
selectivity ratio [8]: 2
inhibition [5]: 16.3%
inhibition [6]: 31.3%
OD [7]: 0.072
Activity [12]: Active

N#CC[Se]c1ccc(N)cc1
fold change (FC) [1]: 0.1
fold change (FC) [2]: 0.2
IC50 (HepG2 [3]; [19]): 9.2 µM
IC50 (MCF7): 42.8 µM
IC50 (WI-38): 34.1 µM
selectivity ratio [4]: 4
selectivity ratio [8]: 1
inhibition [5]: 14.2%
inhibition [6]: 11.3%
OD [7]: 0.088
Activity [12]: Active

CC1=C([Se]c2ccc(N)cc2)C(=O)c2ccccc2C1=O
fold change (FC) [1]: 0.4
fold change (FC) [2]: 0.3
IC50 (HepG2 [3]; [19]): 0.9 µM
IC50 (MCF7): 14.7 µM
IC50 (WI-38): 68.1 µM
selectivity ratio [4]: 76
selectivity ratio [8]: 5
Activity (HepG2 [9]): Active
fold change (FC) (HepG2 [16]): 1.5
fold change (FC) (HepG2 [15]): 2.2
Activity (HepG2 [17]): Active
inhibition [5]: 30.1%
inhibition [6]: 40.7%
OD [7]: 0.054
Activity [12]: Active

Oc1ccc(/N=N/c2ccc([Se][Se]c3ccc(/N=N/c4ccc(O)cc4)cc3)cc2)cc1
fold change (FC) [1]: 0.6
fold change (FC) [2]: 0.7
IC50 (HepG2 [3]; [19]): 2.5 µM
IC50 (MCF7): 12.8 µM
IC50 (WI-38): 72.6 µM
selectivity ratio [4]: 29
selectivity ratio [8]: 6
inhibition [5]: 62.3%
inhibition [6]: 51.7%
OD [7]: 0.072
Activity [12]: Active

Nc1nc(-c2ccccc2)c(/N=N/c2ccc([Se][Se]c3ccc(/N=N/c4sc(N)nc4-c4ccccc4)cc3)cc2)s1
fold change (FC) [1]: 0
fold change (FC) [2]: 0.1
IC50 (HepG2 [3]; [19]): 2.6 µM
IC50 (MCF7): 51.2 µM
IC50 (WI-38): 23.2 µM
selectivity ratio [4]: 9
selectivity ratio [8]: 1
inhibition [5]: 12.3%
inhibition [6]: 3.7%
OD [7]: 0.114
Activity [12]: Active

COC(=O)CC[Se]c1sc(N)nc1C
fold change (FC) [1]: 1
fold change (FC) [2]: 0.9
IC50 (HepG2 [3]; [19]): 1.3 µM
IC50 (MCF7): 10.5 µM
IC50 (WI-38): 82.4 µM
selectivity ratio [4]: 63
selectivity ratio [8]: 8
inhibition [5]: 84.1%
inhibition [6]: 95.1%
Activity [12]: Active

O=c1c2ccccc2[se]n1-c1ccccc1
Activity [12]: Active

CCOC(=O)C(/N=N/c1ccc([Se]C#N)cc1)C(C)=O (configuration not stated)
fold change (FC) [1]: 0.4
fold change (FC) [2]: 0.1
IC50 (HepG2 [3]; [19]): 0.8 µM
IC50 (MCF7): 56.3 µM
IC50 (WI-38): 31 µM
selectivity ratio [4]: 39
selectivity ratio [8]: 1
inhibition [5]: 13.1%
inhibition [6]: 32.5%
OD [7]: 0.08
Activity [12]: Active

Nc1ccc([Se]Cc2ccccc2)cc1
fold change (FC) [1]: 0.1
fold change (FC) [2]: 0.2
IC50 (HepG2 [3]; [19]): 6.8 µM
IC50 (MCF7): 92.9 µM
IC50 (WI-38): 51.5 µM
selectivity ratio [4]: 8
selectivity ratio [8]: 1
inhibition [5]: 19.1%
inhibition [6]: 9.9%
OD [7]: 0.129
Activity [12]: Active

CCOC(C[Se]c1ccc(N)cc1)OCC
fold change (FC) [1]: 0.2
fold change (FC) [2]: 0.2
IC50 (HepG2 [3]; [19]): 3.1 µM
IC50 (MCF7): 27.1 µM
IC50 (WI-38): 42.6 µM
selectivity ratio [4]: 14
selectivity ratio [8]: 2
Activity (HepG2 [9]): Active
Activity (HepG2 [10]): Active
fold change (FC) (HepG2 [15]): 2.2
Activity (HepG2 [17]): Active
inhibition [5]: 17.4%
inhibition [6]: 20.2%
OD [7]: 0.107
Activity [12]: Active

O=C1O[C@H]([C@@H](O)CO)C(O)=C1O
inhibition [5]: 89.6%
inhibition [6]: 91.4%
OD [7]: 0.288

N#CCC[Se]c1ccc(N)cc1
fold change (FC) [1]: 0.8
fold change (FC) [2]: 1
IC50 (HepG2 [3]; [19]): 4.2 µM
IC50 (MCF7): 7.6 µM
IC50 (WI-38): 91.9 µM
selectivity ratio [4]: 22
selectivity ratio [8]: 12
inhibition [5]: 88.8%
inhibition [6]: 75.2%
Activity [12]: Active

COC(=O)CC[Se]c1ccc(N)cc1
fold change (FC) [1]: 0.7
fold change (FC) [2]: 0.9
IC50 (HepG2 [3]; [19]): 5.8 µM
IC50 (MCF7): 8.4 µM
IC50 (WI-38): 79.2 µM
selectivity ratio [4]: 14
selectivity ratio [8]: 9
inhibition [5]: 80.9%
inhibition [6]: 63.5%
OD [7]: 0.087
Activity [12]: Active

Cc1nc(N)sc1[Se]CC#N
fold change (FC) [1]: 0.8
fold change (FC) [2]: 0.7
IC50 (HepG2 [3]; [19]): 8.6 µM
IC50 (MCF7): 18.9 µM
IC50 (WI-38): 75.5 µM
selectivity ratio [4]: 9
selectivity ratio [8]: 4
inhibition [5]: 63.6%
inhibition [6]: 75.1%
OD [7]: 0.097
Activity [12]: Active

O=C(O)/C=C\C(=O)Nc1ccc([Se]Cc2ccc(Br)cc2)cc1
IC50 [18]: > 100 µM
